The source of these data is US9006238B2, “Pyrazolo pyridine derivatives as NADPH oxidase inhibitors” (Genkyotex SA, priority 2008, dated 2015).

A word on the IC50: it is the midpoint of a concentration-inhibition curve.

The target of the test is T1, NOX (Homo sapiens, UniProt P04839).
T1 construct: HL60 differentiation to the neutrophil phenotype was triggered by adding Me2SO; endogenous in cells; host or cells: HL-60 cells differentiated with DMSO (1.25% v/v, 6 days) to the neutrophil phenotype
T1 sequence (P04839 1-570): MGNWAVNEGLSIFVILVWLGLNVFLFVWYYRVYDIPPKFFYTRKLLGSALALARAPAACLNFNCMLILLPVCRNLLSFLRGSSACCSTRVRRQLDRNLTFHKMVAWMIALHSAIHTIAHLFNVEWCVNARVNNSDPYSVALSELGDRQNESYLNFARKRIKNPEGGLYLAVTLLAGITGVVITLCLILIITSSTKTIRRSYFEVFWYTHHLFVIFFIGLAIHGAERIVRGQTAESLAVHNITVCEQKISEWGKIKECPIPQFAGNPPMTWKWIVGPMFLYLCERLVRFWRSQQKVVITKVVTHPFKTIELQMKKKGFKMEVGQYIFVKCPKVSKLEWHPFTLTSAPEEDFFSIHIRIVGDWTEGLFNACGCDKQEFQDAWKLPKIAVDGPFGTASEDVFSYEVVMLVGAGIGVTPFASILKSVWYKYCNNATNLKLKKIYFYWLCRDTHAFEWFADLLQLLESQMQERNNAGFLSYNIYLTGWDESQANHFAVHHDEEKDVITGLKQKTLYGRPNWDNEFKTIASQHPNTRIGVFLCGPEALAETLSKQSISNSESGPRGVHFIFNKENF
T1 sequence (P13498 1-195 partner): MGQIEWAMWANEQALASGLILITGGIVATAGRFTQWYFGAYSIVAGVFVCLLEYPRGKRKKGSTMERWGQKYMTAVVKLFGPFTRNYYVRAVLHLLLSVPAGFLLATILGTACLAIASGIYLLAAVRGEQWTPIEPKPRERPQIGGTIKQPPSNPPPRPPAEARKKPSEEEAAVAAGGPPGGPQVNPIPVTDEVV
In words: Amplex Red measurement of extracellular hydrogen peroxide (NOX activity) using DMSO-differentiated HL60 cells. It counts as cell-based. Conditions: DMSO-differentiated HL60 cells; for Inhibition (%) of NOX activity: test concentration not given. How it is done: The activity of the compounds according to the invention may be tested for their activity in the inhibition or reduction of formation of reactive oxygen species (ROS) from oxygen in cells. The activity of the compounds is tested in the following cell cultures by different techniques such as nitroblue tetrazolium, Amplex Red, Chemiluminescence (Luminol) and 2′,7′-dichlorodihydrofluorescein diacetate (H2DCF-DA) according to the protocols detailed below.
Human acute myeloid leukemia cell line HL-60 was cultured in RPMI 1640 (Invitrogen) supplemented with 10% heat-inactivated calf serum, 2 mM glutamine, 100 U/mL penicillin (Sigma), and 100 μg streptomycin (Sigma) at 37° C. under a humidified atmosphere of 5% CO2. HL60 differentiation to the neutrophil phenotype was triggered by adding Me2SO (final concentration 1.25% v/v for 6 days) to the culture medium.
Extracellular hydrogen peroxide was measured using Amplex UltraRed (Molecular Probes). Cells were trypsinized (1× Trypsin-EDTA), collected by centrifugation, and resuspended in HBSS supplemented with 1% glucose. Cells were seeded into black 96-well plates at a density of 50,000 cells in 200 μl testing buffer (HBSS 1% glucose containing 0.005 U/mL horseradish peroxidase (Roche) and 50 μM Amplex Red in the presence or absence of compounds according to the invention. As a control, DPI was included at a final concentration of 10 μM The plates were placed in the fluorescent Optima Fluorescent plate reader and kept at 37° C. during 20 min. Fluorescence was measured for […] with excitation and emission wavelengths of 544 nm and 590 nm respectively. NOX activities were expressed as % of the activity in control cells. Residual activity of DPI-treated cells was usually <10%.
The Table 2 below summarizes the percentage of inhibition of NOX activity as measured by Amplex Red using DMSO-differentiated HL60 cells as described above:
The Table 3 below summarizes the IC50 of NOX activity as measured by Amplex Red using DMSO-differentiated HL60 cells as described above: […]

As to `CCOCCCn1c(COCc2ccccc2)c2c(=O)n(CCN3CCOCC3)[nH]c2cc1=O` [Compound 89, 4-[(benzyloxy)methyl]-5-(3-ethoxypropyl)-2-(2-morpholin-4-ylethyl)-1H-pyrazolo[4,3-c]pyridine-3,6 (2H,5H)-dione], the 50% inhibitory concentration (IC50) was less than 5 µM and the “Inhibition (%) of NOX activity” value turned out to be 86%. The corresponding values for `Cc1c2c(=O)n(C)[nH]c2cc(=O)n1CCN1CCOCC1` [Compound 16, 2,4-Dimethyl-5-(2-Morpholin-4-Ylethyl)-1H-Pyrazolo[4,3-c]Pyridine-3,6(2H,5H)-Dione] are less than 5 µM and 74%. Regarding `Cc1c2c(=O)n(CCOc3ccc(Cl)cc3)[nH]c2cc(=O)n1Cc1ccccn1` [Compound 24, 2-[2-(4-chlorophenoxy)ethyl] 4-methyl-5-(pyridin-2-ylmethyl)-1H-pyrazolo[4,3-c] pyridine-3,6(2H,5H)-dione], the half-inhibitory concentration (IC50) is less than 5 µM and the “Inhibition (%) of NOX activity” value is 79%. Regarding `O=c1c2c(COc3ccc(F)cc3)n(Cc3ccc(Cl)cc3)c(=O)cc2[nH]n1CCN1CCOCC1` [Compound 51, 5-(4-chlorobenzyl)-4-[(4-fluorophenoxy)methyl]-2-(2-morpholin-4-ylethyl)-1H-pyrazolo[4,3-c]pyridine-3,6 (2H,5H)-dione], the half-maximal inhibitory concentration (IC50) is less than 5 µM and the “Inhibition (%) of NOX activity” value was 76%.

`Cn1[nH]c2cc(=O)n(CC3CN(Cc4ccccc4)CCO3)c(-c3ccc(Cl)cc3)c2c1=O` (stereo not shown) [Compound 97, 5-[(4-benzylmorpholin-2-yl)methyl]-4-(4-chlorophenyl)-2-methyl-1H-pyrazolo[4,3-c] pyridine-3,6(2H,5H)-dione]: the “Inhibition (%) of NOX activity” value turned out to be 89%. On to `COCCn1[nH]c2cc(=O)n(CCc3ccccn3)c(C)c2c1=O` [Compound 15, 2-(2-Methoxyethyl)-4-Methyl-5-(2-Pyridin-2-Ylethyl)-1H-Pyrazolo[4,3-c]Pyridine-3,6(2H,5H)-Dione], for which the half-inhibitory concentration (IC50) is less than 5 µM and the “Inhibition (%) of NOX activity” value turned out to be 72%. In the same order, the values of `Cc1c2c(=O)n(Cc3ccccc3)[nH]c2cc(=O)n1Cc1ccccn1` [Compound 1, 2-Benzyl-4-Methyl-5-(Pyridin-2-Ylmethyl)-1H-Pyrazolo[4,3-c]Pyridine-3,6(2H,5H)-Dione] are less than 5 µM and 67%. The corresponding values for `Cc1c2c(=O)n(C)[nH]c2cc(=O)n1Cc1ccccn1` [Compound 4, 2,4-Dimethyl-5-(Pyridin-2-Ylmethyl)-1H-Pyrazolo[4,3-c]Pyridine-3,6(2H,5H)-Dione] are less than 5 µM and 65%.

As for `Cc1c2c(=O)n(CC(C)C)[nH]c2cc(=O)n1Cc1cccnc1` [Compound 44, 4-methyl-2-(2-methylpropyl)-5-(pyridin-3-ylmethyl)-1H-pyrazolo[4,3-c]pyridine-3,6 (2H,5H)-dione], the IC50 is less than 5 µM and the “Inhibition (%) of NOX activity” value is 78%. The corresponding values for `Cc1c2c(=O)n(CCN3CCOCC3)[nH]c2cc(=O)n1Cc1ccc(Cl)cc1` [Compound 10, 5-(4-Chlorobenzyl)-4-Methyl-2-(2-Morpholin-4-Ylethyl)-1H-Pyrazolo[4,3-c]Pyridine-3,6(2H,5H)-Dione] are less than 5 µM and 77%. As to `Cc1c2c(=O)n(CC(C)C)[nH]c2cc(=O)n1C1CCc2ccccc21` (stereo not shown) [Compound 48, 5-(2,3-dihydro-1H-inden-1-yl)-4-methyl-2-(2-methylpropyl)-1H-pyrazolo[4,3-c] pyridine-3,6(2H,5H)-dione], the IC50 is less than 5 µM and the “Inhibition (%) of NOX activity” value was found to be 91%. The corresponding values for `Cc1c2c(=O)n(Cc3ccccc3)[nH]c2cc(=O)n1-c1cccc(OC(F)(F)F)c1` [Compound 3, 2-Benzyl-4-Methyl-5-[3-(Trifluoromethoxy)Phenyl]-1H-Pyrazolo[4,3-c]Pyridine-3,6(2H,5H)-Dione] are less than 5 µM and 63%.

As to `Cc1c2c(=O)n(CCc3ccccc3)[nH]c2cc(=O)n1Cc1ccccc1CN1CCOCC1` [Compound 30, 4-methyl-5-[2-(morpholin-4-ylmethyl)benzyl]-2-(2-phenylethyl)-1H-pyrazolo[4,3-c]pyridine-3,6(2H,5H)-dione], the IC50 is less than 5 µM and the “Inhibition (%) of NOX activity” value is recorded as 77%. In the same order, the values of `Cc1c2c(=O)n(C3CCCCC3)[nH]c2cc(=O)n1Cc1ccccc1CN1CCOCC1` [Compound 13, 2-Cyclohexyl-4-Methyl-5-[2-(Morpholin-4-Ylmethyl)Benzyl]-1H-Pyrazolo[4,3-c]Pyridine-3,6(2H,5H)-Dione] are less than 5 µM and 56%. In the same order, the values of `COCCn1[nH]c2cc(=O)n(CC(=O)N3CCN(Cc4ccccc4)CC3)c(C)c2c1=O` [Compound 35, 5-[2-(4-benzylpiperazin-1-yl)-2-oxoethyl]-2-(2-methoxyethyl)-4-methyl-1H-pyrazolo [4,3-c]pyridine-3,6(2H,5H)-dione] are less than 5 µM and 72%. As to `Cc1c2c(=O)n(C)[nH]c2cc(=O)n1Cc1ccco1` [Compound 6, 5-(Furan-2-Ylmethyl)-2,4-Dimethyl-1H-Pyrazolo[4,3-c]Pyridine-3,6(2H,5H)-Dione], the 50% inhibitory concentration (IC50) was less than 5 µM and the “Inhibition (%) of NOX activity” value was 74%. The corresponding values for `CC(=O)Nc1cccc(Cn2c(C)c3c(=O)n(CCc4ccccc4)[nH]c3cc2=O)c1` [Compound 28, N-(3-{[4-methyl-3,6-dioxo-2-(2-phenylethyl)-1,2,3,6-tetrahydro-5H-pyrazolo[4,3-c]pyridin-5-yl]methyl}phenyl) acetamide] are less than 5 µM and 78%. Regarding `COCCn1[nH]c2cc(=O)n(CC(=O)N3CCOCC3)c(C)c2c1=O` [Compound 20], the IC50 is less than 5 µM and the “Inhibition (%) of NOX activity” value is listed as 75%. Consider `COCCn1[nH]c2cc(=O)n(Cc3ccccc3CN3CCOCC3)c(C)c2c1=O` [Compound 18, 2-(2-methoxyethyl)-4-methyl-5-[2-(morpholin-4ylmethyl)benzyl]-1H-pyrazolo[4,3-c]pyridine-3,6(2H,5H)-dione], for which the half-maximal inhibitory concentration (IC50) was less than 5 µM and the “Inhibition (%) of NOX activity” value was determined as 75%.
